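Step 1: Grow cells in 96-well plates. Step 2: Expose to compound for 48 hours at 5 concentrations. Step 3: Interpolate endpoints linearly; if unreached, use highest concentration. GI50 marks 50% less growth. The concentration for full growth arrest is given as TGI.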
How the values were obtained:
Assay in all cases: growth of human tumour cells (NCI), 48 h
[1] = test system: CAKI-1 renal
[2] = test system: CCRF-CEM leukemia
[3] = test system: TK-10 renal
[4] = test system: OVCAR-4 ovarian
[5] = test system: M14 melanoma
[6] = test system: RPMI-8226 leukemia
[7] = test system: HCT-116 colon
[8] = test system: MALME-3M melanoma
[9] = test system: DU-145 prostate
[10] = test system: SK-OV-3 ovarian
[11] = test system: NCI/ADR-RES ovarian
[12] = test system: OVCAR-8 ovarian
[13] = test system: LOX IMVI melanoma
[14] = test system: UACC-257 melanoma
[15] = test system: HS 578T breast
[16] = test system: SN12C renal
[17] = test system: HCT-15 colon
[18] = test system: A549 NSCLC
[19] = test system: NCI-H522 lung
[20] = test system: MOLT-4 leukemia
[21] = test system: SF-539 CNS
[22] = test system: MDA-MB-468 breast
[23] = test system: HOP-92 NSCLC
[24] = test system: UACC-62 melanoma
[25] = test system: SNB-19 CNS
[26] = test system: HT29 colon
[27] = test system: OVCAR-5 ovarian
[28] = test system: SK-MEL-2 melanoma
[29] = test system: MDA-MB-435
[30] = test system: SR leukemia
[31] = test system: KM12 colon
[32] = test system: SF-295 CNS
[33] = test system: BT-549 breast
[34] = test system: COLO 205 colon
[35] = test system: T-47D breast
[36] = test system: NCI-H23 lung
[37] = test system: SF-268 CNS
[38] = test system: SK-MEL-5 melanoma
[39] = test system: NCI-H460 lung
[40] = test system: HOP-62 NSCLC
[41] = test system: PC-3 prostate
[42] = test system: 786-0 renal
[43] = test system: NCI-H226 lung
[44] = test system: K-562 leukemia
[45] = test system: IGROV1 ovarian
[46] = test system: SNB-75 CNS
[47] = test system: OVCAR-3 ovarian
[48] = test system: UO-31 renal
[49] = test system: SK-MEL-28 melanoma
[50] = test system: A498 renal
[51] = test system: ACHN renal
[52] = test system: MDA-MB-231 breast
[53] = test system: HCC-2998 colon
[54] = test system: U251 CNS
[55] = test system: MCF7 breast
[56] = test system: EKVX NSCLC
[57] = test system: SW-620 colon
[58] = test system: HL-60(TB) leukemia
[59] = test system: RXF 393 renal

## C#C[C@]1(O)CC[C@H]2[C@@H]3CC=C4c5sc(Nc6ccc(N(C)C)cc6)nc5CC[C@]4(C)[C@H]3CC[C@@]21C
[1]
  GI50: 1740 nM
  TGI: > 23600 nM
[2]
  GI50: 812 nM
  TGI: > 86600 nM
[3]
  GI50: 7560 nM
  TGI: 33300 nM
[4]
  GI50: 2540 nM
[5]
  GI50: 1040 nM
  TGI: 4510 nM
[6]
  GI50: 248 nM
  TGI: 2200 nM
[7]
  GI50: 1010 nM
  TGI: 3930 nM
[8]
  GI50: 858 nM
  TGI: 2900 nM
[9]
  GI50: 2550 nM
  TGI: 10800 nM
[10]
  GI50: 1350 nM
  TGI: 3690 nM
[11]
  GI50: 2540 nM
  TGI: 10700 nM
[12]
  GI50: 2990 nM
  TGI: 11000 nM
[13]
  GI50: 923 nM
  TGI: 2410 nM
[14]
  GI50: 2010 nM
  TGI: 6690 nM
[15]
  GI50: 417 nM
  TGI: 3980 nM
[16]
  GI50: 2630 nM
  TGI: 7840 nM
[17]
  GI50: 791 nM
  TGI: 2670 nM
[18]
  GI50: 2500 nM
  TGI: 12500 nM
[19]
  GI50: 1490 nM
  TGI: 3250 nM
[20]
  GI50: 374 nM
  TGI: 5530 nM
[21]
  GI50: 284 nM
  TGI: 1250 nM
[22]
  GI50: 1510 nM
  TGI: 4360 nM
[23]
  GI50: 2650 nM
  TGI: 17800 nM
[24]
  GI50: 1270 nM
  TGI: 3010 nM
[25]
  GI50: 1490 nM
  TGI: 6010 nM
[26]
  GI50: 1660 nM
  TGI: 4300 nM
[27]
  GI50: 2410 nM
  TGI: 8220 nM
[28]
  GI50: 1460 nM
  TGI: 4320 nM
[29]
  GI50: 1660 nM
  TGI: 7370 nM
[30]
  GI50: 567 nM
  TGI: 20100 nM
[31]
  GI50: 2150 nM
  TGI: 7110 nM
[32]
  GI50: 225 nM
  TGI: 557 nM
[33]
  GI50: 642 nM
  TGI: 3070 nM
[34]
  GI50: 2620 nM
  TGI: 6820 nM
[35]
  GI50: 2640 nM
  TGI: 15100 nM
[36]
  GI50: 1330 nM
  TGI: 5140 nM
[37]
  GI50: 1870 nM
  TGI: 10600 nM
[38]
  GI50: 1490 nM
  TGI: 2920 nM
[39]
  GI50: 1440 nM
  TGI: 5610 nM
[40]
  GI50: 1890 nM
  TGI: 7380 nM
[41]
  GI50: 999 nM
  TGI: 9290 nM
[42]
  GI50: 647 nM
  TGI: 5340 nM
[43]
  GI50: 2410 nM
  TGI: 10900 nM
[44]
  GI50: 1860 nM
  TGI: 15800 nM
[45]
  GI50: 3220 nM
  TGI: 10100 nM
[46]
  GI50: 1290 nM
  TGI: 6320 nM
[47]
  GI50: 2300 nM
  TGI: 7190 nM
[48]
  GI50: 1500 nM
  TGI: 5210 nM
[49]
  GI50: 651 nM
  TGI: 1880 nM
[50]
  GI50: 1880 nM
  TGI: 4180 nM
[51]
  GI50: 2240 nM
  TGI: 10800 nM
[52]
  GI50: 1270 nM
  TGI: 3330 nM
[53]
  GI50: 3230 nM
  TGI: 7820 nM
[54]
  GI50: 735 nM
  TGI: 4440 nM
[55]
  GI50: 948 nM
  TGI: 4210 nM
[56]
  GI50: 1590 nM
  TGI: 6490 nM
[57]
  GI50: 1100 nM
  TGI: 3470 nM
[58]
  GI50: 2400 nM
  TGI: 12300 nM
[59]
  GI50: 190 nM
  TGI: 715 nM
